Columns and labels:
Assay in all cases: NCI 60 cell panel SRB screen
CCRF-CEM = format: cell-based, human
HL-60(TB) = format: cell-based; conditions: Homo sapiens
RPMI-8226 = format: cell-based; conditions: Homo sapiens
SR = format: cell-based; conditions: Homo sapiens
NCI-H226 = format: cell-based; conditions: Homo sapiens
NCI-H322M = format: cell-based; conditions: Homo sapiens
NCI-H460 = format: cell-based; conditions: Homo sapiens
HCC-2998 = format: cell-based; conditions: Homo sapiens
HT29 = format: cell-based; conditions: Homo sapiens, HT-29
KM12 = format: cell-based; conditions: Homo sapiens; KM12, 5 log dose
[1] = 5 log dose, 48 h, read-out: LC50 (the source's name)
[2] = single dose 10 μM, read-out: percent cell growth promotion

O=C(Nc1ccc(Cl)cc1)Nc1ccc(Nc2nncc3ccccc23)cc1 [Compound 6b, 1–(4-Chlorophenyl)-3–(4-(phthalazin-1-ylamino)phenyl)urea]
TGI (CCRF-CEM; 5 log dose): 17.0 µM
GI50 (CCRF-CEM; Homo sapiens, 5 log dose): 2.57 µM
CC50 (CCRF-CEM; Homo sapiens, 5 log dose, 48 h, read-out: LC50 (the source's name)): > 100 µM
activity at 10 µM (CCRF-CEM; Homo sapiens, single dose 10 μM, read-out: percent cell growth promotion): 13.1%
GI50 (HL-60(TB); 5 log dose): 2.42 µM
IC (TGI) (HL-60(TB); 5 log dose): 7 µM
CC50 (HL-60(TB); [1]): > 100 µM
activity at 10 µM (HL-60(TB); [2]): 18.1%
GI50 (RPMI-8226; RPMI-8226, 5 log dose): 2.5 µM
IC (TGI) (RPMI-8226; RPMI-8226, 5 log dose): 8.75 µM
CC50 (RPMI-8226; RPMI-8226, 5 log dose, 48 h, read-out: LC50 (the source's name)): > 100 µM
activity at 10 µM (RPMI-8226; RPMI-8226, single dose 10 μM, read-out: percent cell growth promotion): 8.62%
GI50 (SR; 5 log dose): 3.89 µM
IC (TGI) (SR; 5 log dose): 23.3 µM
CC50 (SR; [1]): > 100 µM
activity at 10 µM (SR; [2]): 17.5%
GI50 (NCI-H226; NCI-H226, 5 log dose): 2.46 µM
IC (TGI) (NCI-H226; NCI-H226, 5 log dose): 12.5 µM
CC50 (NCI-H226; NCI-H226, 5 log dose, 48 h, read-out: LC50 (the source's name)): 43.2 µM
activity at 10 µM (NCI-H226; NCI-H226, single dose 10 μM, read-out: percent cell growth promotion): 33.3%
GI50 (NCI-H322M; 5 log dose): 5 µM
IC (TGI) (NCI-H322M; 5 log dose): 15 µM
CC50 (NCI-H322M; [1]): > 100 µM
activity at 10 µM (NCI-H322M; [2]): 64.3%
GI50 (NCI-H460; NCI-H460, 5 log dose): 2.91 µM
IC (TGI) (NCI-H460; NCI-H460, 5 log dose): 11.9 µM
LC50 (concentration causing 50% cell kill) (NCI-H460; NCI-H460, 5 log dose, 48 h): 56.8 µM
activity at 10 µM (NCI-H460; NCI-H460, single dose 10 μM, read-out: percent cell growth promotion): 9.89%
GI50 (HCC-2998; HCC-2998, 5 log dose): 3.26 µM
IC (TGI) (HCC-2998; HCC-2998, 5 log dose): 19.8 µM
LC50 (50% lethal concentration) (HCC-2998; HCC-2998, 5 log dose, 48 h): > 100 µM
activity at 10 µM (HCC-2998; HCC-2998, single dose 10 μM, read-out: percent cell growth promotion): 30.7%
GI50 (HT29; HT29, 5 log dose): 2.65 µM
IC (TGI) (HT29; HT29, 5 log dose): 14.1 µM
CC50 (HT29; HT29, 5 log dose, 48 h, read-out: LC50 (the source's name)): 60 µM
activity at 10 µM (HT29; HT29, single dose 10 μM, read-out: percent cell growth promotion): 32.4%
GI50 (KM12): 1.47 µM
IC (TGI) (KM12): 11.4 µM
